System: NSCLC cell line Calu-3
Experiment: Orthotopic nude rat model for lung cancer, inhaled vs IP bevacizumab, primary and maintenance treatment
Format: in vivo
Settings: week 8; INH 1.5 mg/kg deposited vs IP 15 mg/kg; cisplatin IP 3 mg/kg
Method: NSCLC cell line Calu-3 was instilled into the lungs of X-irradiated rats by an intratracheal route, targeting […] cells per installation. For the first four weeks of the study, no treatment was administered, allowing growth of the tumor cells. Inhaled bevacizumab SDD was evaluated as a primary treatment as well as a maintenance therapy.
Cisplatin was administered by IP at 3 mg/kg. Powder was aerosolized using a rotating brush generator and delivered to the rats passively through nasal inhalation. […] Groups 1-4 were evaluated for primary efficacy after 8 weeks with lung weight as the end point. Groups 5-7 were evaluated for maintenance efficacy after 12 weeks with lung weight and survival as the end point.

Bevacizumab [IP bevacizumab]
tumor burden, co-administered with cisplatin, inhaled vs IP bevacizumab: indistinguishable, and significantly lower than group 1 and 3

Reference: patent US20240000707A1, “INHALABLE DRY POWDER FORMULATIONS COMPRISING ANGIOGENESIS INHIBITORS” (Lonza Bend Inc., priority 2020, published 2024)
